ChEMBL document CHEMBL1275492, “In vitro activity of ceftobiprole against pathogens from two phase 3 clinical trials of complicated skin and skin structure infections” (2008)
In brackets after ≈: the same amount, converted by molar mass.

Experiments:
Type in all cases: functional
[1] = test system: Streptococcus constellatus; test: Antibacterial activity against Streptococcus constellatus obtained from complicated skin and skin structure infections by agar dilution method
[2] = test system: Aerococcus viridans; test: Antibacterial activity against Aerococcus viridans obtained from complicated skin and skin structure infections by agar dilution method
[3] = test system: Streptococcus pyogenes; test: Antibacterial activity against Streptococcus pyogenes obtained from complicated skin and skin structure infections by agar dilution method
[4] = Antibacterial activity against Streptococcus sp. 'group G' obtained from complicated skin and skin structure infections by agar dilution method
[5] = test system: Streptococcus agalactiae; test: Antibacterial activity against Streptococcus agalactiae obtained from complicated skin and skin structure infections by agar dilution method
[6] = test system: Gemella morbillorum; test: Antibacterial activity against Gemella morbillorum obtained from complicated skin and skin structure infections […]
[7] = test system: Staphylococcus intermedius; test: Antibacterial activity against Staphylococcus intermedius obtained from complicated skin and skin structure infections by agar dilution method
[8] = test system: Enterococcus faecalis; test: Antibacterial activity against Enterococcus faecalis obtained from complicated skin and skin structure infections by agar dilution method
[9] = test system: Gemella; test: Antibacterial activity against Gemella spp. obtained from complicated skin and skin structure infections by agar dilution method
[10] = test system: Micrococcus; test: Antibacterial activity against Micrococcus spp. obtained from complicated skin and skin structure infections by agar dilution method
[11] = test system: Lactococcus lactis; test: Antibacterial activity against Lactococcus lactis obtained from complicated skin and skin structure infections by agar dilution method
[12] = test system: Enterococcus faecium; test: Antibacterial activity against Enterococcus faecium obtained from complicated skin and skin structure infections by agar dilution method
[13] = Antibacterial activity against Streptococcus sp. 'group C' obtained from complicated skin and skin structure infections by agar dilution method
[14] = test system: Bacillus; test: Antibacterial activity against Bacillus spp. obtained from complicated skin and skin structure infections by agar dilution method
[15] = test system: Streptococcus mitis; test: Antibacterial activity against Streptococcus mitis obtained from complicated skin and skin structure infections by agar dilution method
[16] = test system: Enterobacter amnigenus; test: Antibacterial activity against Enterobacter amnigenus obtained from complicated skin and skin structure infections by agar dilution method; conditions: Lelliottia amnigena
[17] = test system: Klebsiella oxytoca; test: Antibacterial activity against Klebsiella oxytoca obtained from complicated skin and skin structure infections by agar dilution method
[18] = test system: Citrobacter freundii; test: Antibacterial activity against Citrobacter freundii obtained from complicated skin and skin structure infections by agar dilution method
[19] = test system: Providencia stuartii; test: Antibacterial activity against Providencia stuartii obtained from complicated skin and skin structure infections by agar dilution method
[20] = test system: Proteus mirabilis; test: Antibacterial activity against Proteus mirabilis obtained from complicated skin and skin structure infections by agar dilution method
[21] = test system: Escherichia coli; test: Antibacterial activity against Escherichia coli obtained from complicated skin and skin structure infections by agar dilution method
[22] = test system: Proteus vulgaris; test: Antibacterial activity against Proteus vulgaris obtained from complicated skin and skin structure infections by agar dilution method
[23] = test system: Klebsiella aerogenes; test: Antibacterial activity against Enterobacter aerogenes obtained from complicated skin and skin structure infections by agar dilution method
[24] = test system: Morganella morganii; test: Antibacterial activity against Morganella morganii obtained from complicated skin and skin structure infections by agar dilution method
[25] = test system: Enterobacter cloacae; test: Antibacterial activity against Enterobacter cloacae obtained from complicated skin and skin structure infections by agar dilution method
[26] = test system: Klebsiella pneumoniae; test: Antibacterial activity against Klebsiella pneumoniae obtained from complicated skin and skin structure infections by agar dilution method
[27] = test system: Pseudomonas fluorescens; test: Antibacterial activity against Pseudomonas fluorescens obtained from complicated skin and skin structure infections by agar dilution method
[28] = test system: Acinetobacter baumannii; test: Antibacterial activity against Acinetobacter baumannii obtained from complicated skin and skin structure infections by agar dilution method
[29] = test system: Stenotrophomonas maltophilia; test: Antibacterial activity against Stenotrophomonas maltophilia obtained from complicated skin and skin structure infections by agar dilution method
[30] = test system: Citrobacter braakii; test: Antibacterial activity against Citrobacter braakii obtained from complicated skin and skin structure infections by agar dilution method
[31] = test system: Proteus penneri; test: Antibacterial activity against Proteus penneri obtained from complicated skin and skin structure infections by agar dilution method
[32] = test system: Salmonella; test: Antibacterial activity against Salmonella spp. obtained from complicated skin and skin structure infections by agar dilution method
[33] = test system: Serratia marcescens; test: Antibacterial activity against Serratia marcescens obtained from complicated skin and skin structure infections by agar dilution method
[34] = test system: Pseudomonas aeruginosa; test: Antibacterial activity against Pseudomonas aeruginosa obtained from complicated skin and skin structure infections by agar dilution method

With `CC1(C)S[C@@H]2[C@H](NC(=O)Cc3ccccc3)C(=O)N2[C@H]1C(=O)O` [PENICILLIN G] the MIC [1] was ≤ 0.03 µg/mL, the MIC50 [1] was ≤ 0.03 µg/mL and the MIC90 [1] was 0.12 µg/mL (≈ 0.359 µM). The MIC50 [2] was ≤ 0.03 µg/mL, the MIC90 [2] was 1 µg/mL (≈ 2.99 µM) and the MIC [3] was ≤ 0.03 µg/mL. The MIC50 [3] was ≤ 0.03 µg/mL, the MIC90 [3] was ≤ 0.03 µg/mL and the MIC [4] was ≤ 0.03 µg/mL. For the same compound, the MIC50 [4] was ≤ 0.03 µg/mL, the MIC90 [4] was ≤ 0.03 µg/mL and the MIC50 [5] was 0.06 µg/mL (≈ 0.179 µM). The MIC90 [5] was 0.06 µg/mL (≈ 0.179 µM), the MIC50 [6] was ≤ 0.03 µg/mL and the MIC90 [6] was 1 µg/mL (≈ 2.99 µM). It also gave an MIC50 [7] of 0.5 µg/mL (≈ 1.5 µM), an MIC90 [7] of 0.5 µg/mL (≈ 1.5 µM) and an MIC [8] of 2 µg/mL (≈ 5.98 µM). The MIC50 [8] was 2 µg/mL (≈ 5.98 µM), the MIC90 [8] was 4 µg/mL (≈ 12 µM) and the MIC50 [9] was ≤ 0.03 µg/mL. For the same compound, the MIC90 [9] was 1 µg/mL (≈ 2.99 µM), the MIC50 [10] was ≤ 0.03 µg/mL and the MIC90 [10] was 1 µg/mL (≈ 2.99 µM). The MIC50 [11] was ≤ 0.03 µg/mL, the MIC90 [11] was 1 µg/mL (≈ 2.99 µM) and the MIC [12] was > 4 µg/mL. For the same compound, the MIC50 [12] was > 4 µg/mL, the MIC [13] was ≤ 0.03 µg/mL and the MIC50 [13] was ≤ 0.03 µg/mL. The MIC90 [13] was 0.06 µg/mL (≈ 0.179 µM), the MIC50 [14] was ≤ 0.03 µg/mL and the MIC90 [14] was 1 µg/mL (≈ 2.99 µM). For the same compound, the MIC50 [15] was 0.5 µg/mL (≈ 1.5 µM) and the MIC90 [15] was 0.5 µg/mL (≈ 1.5 µM).

For `CC(C)(O/N=C(\C(=O)N[C@@H]1C(=O)N2C(C(=O)[O-])=C(C[n+]3ccccc3)CS[C@H]12)c1csc(N)n1)C(=O)O` [CEFTAZIDIME], the MIC50 [16] was 0.12 µg/mL (≈ 0.22 µM), the MIC90 [16] was 16 µg/mL (≈ 29.3 µM) and the MIC50 [1] was 2 µg/mL (≈ 3.66 µM). It also gave an MIC90 [1] of 4 µg/mL (≈ 7.32 µM), an MIC50 [2] of 1 µg/mL (≈ 1.83 µM) and an MIC90 [2] of 64 µg/mL (≈ 117 µM). The MIC50 [3] was 0.12 µg/mL (≈ 0.22 µM), the MIC90 [3] was 0.12 µg/mL (≈ 0.22 µM) and the MIC50 [17] was 0.12 µg/mL (≈ 0.22 µM). The MIC90 [17] was 16 µg/mL (≈ 29.3 µM), the MIC50 [18] was 0.12 µg/mL (≈ 0.22 µM) and the MIC90 [18] was 16 µg/mL (≈ 29.3 µM). It also gave an MIC50 [19] of 0.12 µg/mL (≈ 0.22 µM), an MIC90 [19] of 16 µg/mL (≈ 29.3 µM) and an MIC50 [20] of 0.06 µg/mL (≈ 0.11 µM). It also gave an MIC90 [20] of 2 µg/mL (≈ 3.66 µM), an MIC50 [21] of 0.12 µg/mL (≈ 0.22 µM) and an MIC90 [21] of 0.25 µg/mL (≈ 0.457 µM). It also gave an MIC50 [4] of 0.25 µg/mL (≈ 0.457 µM), an MIC90 [4] of 0.25 µg/mL (≈ 0.457 µM) and an MIC50 [5] of 0.5 µg/mL (≈ 0.915 µM). It also gave an MIC90 [5] of 1 µg/mL (≈ 1.83 µM), an MIC50 [6] of 1 µg/mL (≈ 1.83 µM) and an MIC90 [6] of 64 µg/mL (≈ 117 µM). For the same compound, the MIC50 [22] was 0.12 µg/mL (≈ 0.22 µM), the MIC90 [22] was 16 µg/mL (≈ 29.3 µM) and the MIC50 [23] was 0.12 µg/mL (≈ 0.22 µM). The MIC90 [23] was 16 µg/mL (≈ 29.3 µM), the MIC50 [7] was 0.12 µg/mL (≈ 0.22 µM) and the MIC90 [7] was 0.25 µg/mL (≈ 0.457 µM). For the same compound, the MIC50 [8] was > 128 µg/mL, the MIC90 [8] was > 128 µg/mL and the MIC50 [9] was 1 µg/mL (≈ 1.83 µM). For the same compound, the MIC90 [9] was 64 µg/mL (≈ 117 µM), the MIC50 [10] was 1 µg/mL (≈ 1.83 µM) and the MIC90 [10] was 64 µg/mL (≈ 117 µM). The MIC50 [11] was 1 µg/mL (≈ 1.83 µM), the MIC90 [11] was 64 µg/mL (≈ 117 µM) and the MIC50 [24] was ≤ 0.12 µg/mL. It also gave an MIC90 [24] of 8 µg/mL (≈ 14.6 µM), an MIC50 [25] of 0.25 µg/mL (≈ 0.457 µM) and an MIC90 [25] of 64 µg/mL (≈ 117 µM). For the same compound, the MIC50 [26] was 0.12 µg/mL (≈ 0.22 µM), the MIC90 [26] was 64 µg/mL (≈ 117 µM) and the MIC50 [27] was > 16 µg/mL. For the same compound, the MIC90 [27] was > 128 µg/mL, the MIC50 [28] was > 16 µg/mL and the MIC90 [28] was > 128 µg/mL. The MIC50 [13] was 0.5 µg/mL (≈ 0.915 µM), the MIC90 [13] was 4 µg/mL (≈ 7.32 µM) and the MIC50 [14] was 1 µg/mL (≈ 1.83 µM). For the same compound, the MIC90 [14] was 64 µg/mL (≈ 117 µM), the MIC50 [29] was > 16 µg/mL and the MIC90 [29] was > 128 µg/mL. It also gave an MIC50 [30] of 0.12 µg/mL (≈ 0.22 µM), an MIC90 [30] of 16 µg/mL (≈ 29.3 µM) and an MIC50 [31] of 0.12 µg/mL (≈ 0.22 µM). For the same compound, the MIC90 [31] was 16 µg/mL (≈ 29.3 µM), the MIC50 [32] was 0.12 µg/mL (≈ 0.22 µM) and the MIC90 [32] was 16 µg/mL (≈ 29.3 µM). The MIC50 [33] was 0.12 µg/mL (≈ 0.22 µM), the MIC90 [33] was 16 µg/mL (≈ 29.3 µM) and the MIC50 [15] was 0.12 µg/mL (≈ 0.22 µM). For the same compound, the MIC90 [15] was 0.25 µg/mL (≈ 0.457 µM), the MIC50 [34] was 2 µg/mL (≈ 3.66 µM) and the MIC90 [34] was > 128 µg/mL.
